Measurements published in patent publication US20080286338A1, “Drug delivery system with scleral lens” (Boston Foundation for Sight, priority 2007, published 2008).
Where two headings read alike, the source gives them in different places.

Legend:
[1] = test system: corneal neovascularization; conditions: solution of 1% AVASTIN and 0.01% BAK, one drop, four times per day for at least thirty days, topical drops; cited from earlier work
[2] = test system: corneal neovascularization; test: Off-label topical AVASTIN for corneal neovascularization using the scleral lens drug delivery system; assay type: in vivo
Source text: This study using AVASTIN® off-label, topically, to treat corneal neovascularization was repeated using the scleral lens drug delivery system. […] This therapeutic effect was achieved without BAK. Instead, the expanded pre-corneal tear film of the scleral lens drug delivery system provided adequate bioavailability of the drug without exposing the cornea to BAK.

bevacizumab [AVASTIN®]
therapeutic effect on corneal neovascularization [1]: Therapeutic effect was reported
therapeutic effect on corneal neovascularization ([2]; one drop of 1% AVASTIN added to expanded pre-corneal tear film of artificial tears in scleral lens twice per day, without BAK, by thirty days, continued benefit over subsequent sixty days): achieved a therapeutic effect by thirty days with continued benefit over the subsequent sixty days
regression of corneal neovascularization (clinical photos, FIG. 5) ([2]; scleral lens drug delivery system): regression of corneal neovascularization
